In patent US10660877B2 (BRISTOL-MYERS SQUIBB COMPANY, priority 2016, dated 2020):
Read-outs that look alike come from different tables or passages of the source.

Columns and labels:
human TLR7 = human TLR7 (Homo sapiens (Human), UniProt Q9NYK1); assay: TLR7 inhibition reporter assay (HEK-Blue cells, SEAP reporter, gardiquimod stimulation); format: cell-based
human TLR8 = human TLR8 (Homo sapiens (Human), UniProt Q9NR97); assay: TLR8 inhibition reporter assay (HEK-Blue cells, SEAP reporter, R848 stimulation);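 further: compounds tested from 0.05 nM to 50 µM, 22 h at 37 °C, SEAP measured with HEK-Blue Detection, inhibition relative to agonist plus DMSO versus a known inhibitor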
Sequence of human TLR8 (Q9NR97 27-1041): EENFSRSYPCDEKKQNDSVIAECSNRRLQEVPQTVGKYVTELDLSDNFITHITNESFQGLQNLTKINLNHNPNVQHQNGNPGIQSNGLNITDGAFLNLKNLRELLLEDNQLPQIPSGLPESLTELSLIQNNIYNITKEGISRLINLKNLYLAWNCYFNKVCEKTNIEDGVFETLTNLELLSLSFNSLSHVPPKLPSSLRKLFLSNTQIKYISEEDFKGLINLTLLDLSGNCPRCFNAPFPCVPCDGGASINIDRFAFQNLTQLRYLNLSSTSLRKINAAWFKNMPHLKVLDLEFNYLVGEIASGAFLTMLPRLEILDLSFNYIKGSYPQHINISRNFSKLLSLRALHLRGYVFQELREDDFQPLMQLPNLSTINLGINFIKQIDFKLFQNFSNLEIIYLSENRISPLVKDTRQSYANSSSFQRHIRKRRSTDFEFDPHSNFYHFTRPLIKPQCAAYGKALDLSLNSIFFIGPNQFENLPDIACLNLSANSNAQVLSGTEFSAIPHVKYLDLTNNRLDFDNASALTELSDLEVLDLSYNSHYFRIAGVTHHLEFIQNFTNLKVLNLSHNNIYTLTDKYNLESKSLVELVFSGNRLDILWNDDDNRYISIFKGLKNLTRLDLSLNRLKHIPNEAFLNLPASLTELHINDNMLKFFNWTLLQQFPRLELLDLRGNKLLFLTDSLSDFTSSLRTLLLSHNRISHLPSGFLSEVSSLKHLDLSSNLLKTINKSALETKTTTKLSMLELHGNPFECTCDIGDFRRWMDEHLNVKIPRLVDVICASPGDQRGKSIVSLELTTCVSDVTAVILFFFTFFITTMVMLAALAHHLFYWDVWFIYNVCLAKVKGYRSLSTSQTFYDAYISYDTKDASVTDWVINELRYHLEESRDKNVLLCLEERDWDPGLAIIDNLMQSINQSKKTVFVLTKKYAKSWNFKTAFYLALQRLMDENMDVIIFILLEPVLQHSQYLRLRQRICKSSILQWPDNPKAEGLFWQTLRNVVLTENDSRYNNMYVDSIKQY

human TLR9 = human TLR9 (Homo sapiens (Human), UniProt Q9NR96); assay: TLR9 inhibition reporter assay (HEK-Blue cells, SEAP reporter, ODN2006 stimulation);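 further: compounds tested over 0.05 nM to 50 µM, 22 h incubation, inhibition taken as SEAP signal drop from agonist plus DMSO wells toward a known inhibitor control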
Sequence of human TLR9 (Q9NR96 26-1032): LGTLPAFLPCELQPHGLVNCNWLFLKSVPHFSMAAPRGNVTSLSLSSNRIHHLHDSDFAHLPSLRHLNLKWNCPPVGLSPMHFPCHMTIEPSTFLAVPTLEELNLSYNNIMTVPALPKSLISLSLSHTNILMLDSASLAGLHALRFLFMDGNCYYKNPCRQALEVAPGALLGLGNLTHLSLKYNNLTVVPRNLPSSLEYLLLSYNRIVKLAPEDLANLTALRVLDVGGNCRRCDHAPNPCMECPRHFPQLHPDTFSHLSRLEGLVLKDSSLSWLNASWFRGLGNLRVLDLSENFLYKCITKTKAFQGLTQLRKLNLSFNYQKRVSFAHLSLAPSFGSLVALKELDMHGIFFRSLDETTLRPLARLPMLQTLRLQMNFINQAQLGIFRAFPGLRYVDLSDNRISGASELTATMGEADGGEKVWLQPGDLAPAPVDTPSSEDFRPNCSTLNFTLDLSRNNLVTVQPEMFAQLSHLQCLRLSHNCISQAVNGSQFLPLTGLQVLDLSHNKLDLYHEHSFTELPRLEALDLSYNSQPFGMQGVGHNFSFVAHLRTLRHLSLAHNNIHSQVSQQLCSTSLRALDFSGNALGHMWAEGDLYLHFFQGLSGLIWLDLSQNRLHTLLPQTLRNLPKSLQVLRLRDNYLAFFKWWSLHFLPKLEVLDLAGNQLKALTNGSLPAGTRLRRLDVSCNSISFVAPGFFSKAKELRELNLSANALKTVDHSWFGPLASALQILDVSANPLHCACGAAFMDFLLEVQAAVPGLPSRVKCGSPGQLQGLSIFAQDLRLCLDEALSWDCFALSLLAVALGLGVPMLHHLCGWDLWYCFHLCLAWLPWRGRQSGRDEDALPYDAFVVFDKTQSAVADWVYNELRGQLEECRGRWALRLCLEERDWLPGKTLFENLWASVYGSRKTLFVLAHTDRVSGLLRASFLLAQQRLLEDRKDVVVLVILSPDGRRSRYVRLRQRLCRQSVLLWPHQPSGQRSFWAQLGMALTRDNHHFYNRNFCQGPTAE

[1] = HEK-Blue cells overexpressing human TLR7, gardiquimod 7.5 μM
[2] = read-out: TLR8 IC50, HEK-Blue cells overexpressing human TLR8, R848 15.9 μM
[3] = read-out: TLR9 IC50, HEK-Blue cells overexpressing human TLR9, ODN2006 5 nM
[4] = HEK-Blue cells, gardiquimod 7.5 μM
[5] = read-out: TLR8 IC50, HEK-Blue cells, R848 15.9 μM
[6] = read-out: TLR9 IC50, HEK-Blue cells, ODN2006 5 nM

Sequence of human TLR7 (Q9NYK1 27-1049): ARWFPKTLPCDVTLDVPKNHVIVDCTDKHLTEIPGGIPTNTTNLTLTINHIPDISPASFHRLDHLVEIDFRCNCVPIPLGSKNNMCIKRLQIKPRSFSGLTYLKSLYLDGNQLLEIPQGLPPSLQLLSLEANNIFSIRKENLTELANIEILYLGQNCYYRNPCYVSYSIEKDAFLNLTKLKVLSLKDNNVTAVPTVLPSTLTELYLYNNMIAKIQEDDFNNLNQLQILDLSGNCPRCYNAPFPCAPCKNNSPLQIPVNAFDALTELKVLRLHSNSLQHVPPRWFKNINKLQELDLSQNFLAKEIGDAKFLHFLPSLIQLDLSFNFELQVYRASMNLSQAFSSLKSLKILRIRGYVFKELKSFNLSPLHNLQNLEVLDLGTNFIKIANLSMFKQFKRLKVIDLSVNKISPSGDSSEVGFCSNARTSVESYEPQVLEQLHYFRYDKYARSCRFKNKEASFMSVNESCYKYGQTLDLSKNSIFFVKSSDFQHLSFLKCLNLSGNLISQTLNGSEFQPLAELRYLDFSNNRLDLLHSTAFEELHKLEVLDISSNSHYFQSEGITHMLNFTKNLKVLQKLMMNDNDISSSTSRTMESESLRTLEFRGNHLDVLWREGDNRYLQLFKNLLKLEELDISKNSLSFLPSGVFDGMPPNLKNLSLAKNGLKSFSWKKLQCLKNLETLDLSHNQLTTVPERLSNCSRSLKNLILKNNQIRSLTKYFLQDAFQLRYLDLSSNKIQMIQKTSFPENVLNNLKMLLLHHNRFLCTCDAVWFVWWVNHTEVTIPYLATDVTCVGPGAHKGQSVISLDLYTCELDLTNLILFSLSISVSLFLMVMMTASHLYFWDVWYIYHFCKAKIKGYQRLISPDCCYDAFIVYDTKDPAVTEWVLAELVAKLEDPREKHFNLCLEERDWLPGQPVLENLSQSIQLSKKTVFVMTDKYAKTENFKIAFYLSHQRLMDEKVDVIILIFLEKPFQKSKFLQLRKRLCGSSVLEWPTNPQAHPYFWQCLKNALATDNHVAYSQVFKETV

Row | SMILES | IC50 (human TLR7; [1]) | IC50 (human TLR8; [2]) | IC50 (human TLR9; [3]) | IC50 (human TLR7; [4]) | IC50 (human TLR8; [5]) | IC50 (human TLR9; [6]) | IC50 (human TLR8; TLR8 IC50, HEK-Blue cells overexpressing human TLR8, R848 15.9 μM) | IC50 (human TLR9; TLR9 IC50, HEK-Blue cells overexpressing human TLR9, ODN2006 5 nM)
1 | CC(=O)N1CCC(c2ccc3[nH]c(-c4ccnc(C)c4)c(C(C)C)c3c2)CC1 [Example 826, 1-(4-(3-isopropyl-2-(2-methylpyridin-4-yl)-1H-indol-5-yl)piperidin-1-yl)ethan-1-one] |  |  |  | 42.6 nM | 186 nM | 43400 nM |  | 
2 | Cc1cc(-c2[nH]c3ccc(C4CCN(C5CCN(C(C)C)CC5)CC4)cc3c2CC(F)F)cc(C)n1 [Example 540, 3-(2,2-difluoroethyl)-2-(2,6-dimethylpyridin-4-yl)-5-(1′-isopropyl-[1,4′-bipiperidin]-4-yl)-1H-indole] | 11.8 nM | 25.6 nM | 131 nM |  |  |  |  | 
3 | Cc1cc(-c2[nH]c3ccc(C4CCN(C(=O)c5ccc6n(c5=O)CCC6)CC4)cc3c2C(C)C)cc(C)n1 [Example 144, 6-(4-(2-(2,6-dimethylpyridin-4-yl)-3-isopropyl-1H-indol-5-yl)piperidine-1-carbonyl)-2,3-dihydroindolizin-5(1H)-one] | 20 nM | 170 nM | > 50000 nM |  |  |  |  | 
4 | Cc1cc(-c2[nH]c3ccc(C4CCN(C(=O)CN(C)C5CC5)CC4)cc3c2C(C)C)cc(C)n1 [Example 357, 2-(cyclopropyl(methyl)amino)-1-(4-(2-(2,6-dimethylpyridin-4-yl)-3-isopropyl-1H-indol-5-yl)piperidin-1-yl)ethan-1-one] | 13.9 nM | 104 nM | 2350 nM |  |  |  |  | 
5 | CCc1c(-c2ccnc(OC)c2)[nH]c2ccc(C3CCN(C4CCN(CC5CC5)CC4)CC3)cc12 [Example 789, 5-(1′-(cyclopropylmethyl)-[1,4′-bipiperidin]-4-yl)-3-ethyl-2-(2-methoxypyridin-4-yl)-1H-indole] | 599 nM | 269 nM | 408 nM |  |  |  |  | 
6 | Cc1cc(-c2[nH]c3ccc(C4CCN(C5CCN(C(C)C)CC5)CC4)cc3c2C)cc(C)n1 [Example 813, 2-(2,6-dimethylpyridin-4-yl)-5-(1′-isopropyl-[1,4′-bipiperidin]-4-yl)-3-methyl-1H-indole] |  |  |  | 533 nM | 114 nM | 42 nM |  | 
7 | CCc1c(-c2cc(F)nc(F)c2)[nH]c2ccc(C3CCN(C4CCN(CC(C)C)CC4)CC3)cc12 [Example 761, 2-(2,6-difluoropyridin-4-yl)-3-ethyl-5-(1′-isobutyl-[1,4′-bipiperidin]-4-yl)-1H-indole] | 4260 nM | 375 nM | 800 nM |  |  |  |  | 
8 | Cc1cc(-c2[nH]c3ccc(C4CCN(Cc5ccn(C)n5)CC4)cc3c2C(C)C)c(C)cn1 [Example 689, 2-(2,5-dimethylpyridin-4-yl)-3-isopropyl-5-(1-((1-methyl-1H-pyrazol-3-yl)methyl)piperidin-4-yl)-1H-indole] | 23.2 nM | 0.8 nM | 1440 nM |  |  |  |  | 
9 | Cc1cc(-c2[nH]c3ccc(C4CCN(Cc5nnn[nH]5)CC4)cc3c2C(C)C)c(C)cn1 [Example 695, 5-(1-((1H-tetrazol-5-yl)methyl)piperidin-4-yl)-2-(2,5-dimethylpyridin-4-yl)-3-isopropyl-1H-indole] | 1310 nM | 111 nM | > 50000 nM |  |  |  |  | 
10 | CC(C)c1c(-c2cc(C3CC3)ncc2F)[nH]c2ccc(C3CCNCC3)cc12 [Example 481, 2-(2-cyclopropyl-5-fluoropyridin-4-yl)-3-isopropyl-5-(piperidin-4-yl)-1H-indole] | 16 nM | 95.4 nM | 677 nM |  |  |  |  | 
11 | CCc1c(-c2ccnc(C)c2)[nH]c2ccc(C3CCN(C(=O)[C@@H]4CCCN4)CC3)cc12 [Example 629] | 60.4 nM |  |  |  |  |  | 18.7 nM | 482 nM
12 | Cc1cc(-c2[nH]c3ccc(C4CCN(C)CC4)cc3c2C(C)C)c(C)cn1 [Example 636, 2-(2,5-dimethylpyridin-4-yl)-3-isopropyl-5-(1-methylpiperidin-4-yl)-1H-indole] | 9.8 nM | 1 nM | 1370 nM |  |  |  |  | 
13 | Cc1cc(-c2[nH]c3ccc(C4CCN(C(=O)CN(C(C)C)C(C)C)CC4)cc3c2C(C)C)cc(C)n1 [Example 153, 2-(diisopropylamino)-1-(4-(2-(2,6-dimethylpyridin-4-yl)-3-isopropyl-1H-indol-5-yl)piperidin-1-yl)ethan-1-one] | 9.9 nM | 26 nM | 675 nM |  |  |  |  | 
14 | CC(C)c1c(-c2cc(Cl)ncc2C#N)[nH]c2ccc(C3CCNCC3)cc12 [Example 26, 6-chloro-4-(3-isopropyl-5-(piperidin-4-yl)-1H-indol-2-yl)nicotinonitrile] | 199 nM | 481 nM | 6320 nM |  |  |  |  | 
15 | Cc1cc(-c2[nH]c3ccc(C4CCN(CC(C)(C)C(=O)O)CC4)cc3c2C(C)C)cc(C)n1 [Example 321, 3-(4-(2-(2,6-dimethylpyridin-4-yl)-3-isopropyl-1H-indol-5-yl)piperidin-1-yl)-2,2-dimethylpropanoic acid] | 17.1 nM | 68.5 nM | > 50000 nM |  |  |  |  | 
16 | CNC(=O)CN1CCC(c2ccc3[nH]c(-c4ccnc(C)c4)c(C(C)C)c3c2)CC1 [Example 513] | 13.5 nM | 9.8 nM | 2260 nM |  |  |  |  | 
17 | COc1cc(-c2[nH]c3ccc(C4CCN(C)CC4)cc3c2C(C)C)ccn1 [Example 638, 3-isopropyl-2-(2-methoxypyridin-4-yl)-5-(1-methylpiperidin-4-yl)-1H-indole] | 15.6 nM | 55.1 nM | 3300 nM |  |  |  |  | 
18 | CCc1c(-c2ccnc(C)c2)[nH]c2ccc(C3CCN(C[C@@H]4CCCN4C(C)C)CC3)cc12 [Example 741, (S)-3-ethyl-5-(1-((1-isopropylpyrrolidin-2-yl)methyl)piperidin-4-yl)-2-(2-methylpyridin-4-yl)-1H-indole] | 172 nM | 32.7 nM | 213 nM |  |  |  |  | 
19 | CCc1c(-c2ccnc(C)c2)[nH]c2ccc(C3CCN(C(=O)C4CCNC4)CC3)cc12 (stereo not drawn) [Example 595, (4-(3-ethyl-2-(2-methylpyridin-4-yl)-1H-indol-5-yl)piperidin-1-yl)(pyrrolidin-3-yl)methanone] | 84.7 nM | 32.7 nM | 348 nM |  |  |  |  | 

Further compounds by falling IC50 (human TLR7; [1]), results first:

Row | IC50 (human TLR7; [1]) | IC50 (human TLR8; [2]) | IC50 (human TLR9; [3]) | IC50 (human TLR7; [4]) | IC50 (human TLR8; [5]) | IC50 (human TLR9; [6]) | IC50 (human TLR8; TLR8 IC50, HEK-Blue cells overexpressing human TLR8, R848 15.9 μM) | IC50 (human TLR9; TLR9 IC50, HEK-Blue cells overexpressing human TLR9, ODN2006 5 nM) | SMILES
20 | 7.9 nM | 49.4 nM | > 50000 nM |  |  |  |  |  | Cc1cc(-c2[nH]c3ccc(C4CCN(C(=O)CN5CCOCC5=O)CC4)cc3c2C(C)C)cc(C)n1 [Example 161, 4-(2-(4-(2-(2,6-dimethylpyridin-4-yl)-3-isopropyl-1H-indol-5-yl)piperidin-1-yl)-2-oxoethyl)morpholin-3-one]
21 | 7.6 nM | 15.6 nM | 903 nM |  |  |  |  |  | Cc1cc(-c2[nH]c3ccc(C4CCN(CC(=O)N5CCCC(F)C5)CC4)cc3c2C(C)C)cc(C)n1 (stereo not drawn) [Example 258, 2-(4-(2-(2,6-dimethylpyridin-4-yl)-3-isopropyl-1H-indol-5-yl)piperidin-1-yl)-1-(3-fluoropiperidin-1-yl)ethan-1-one]
22 | 7.3 nM | 71.6 nM | 53100 nM |  |  |  |  |  | Cc1cc(-c2[nH]c3ccc(C4CCN(C(=O)CNS(C)(=O)=O)CC4)cc3c2C(C)C)cc(C)n1 [Example 150, N-(2-(4-(2-(2,6-dimethylpyridin-4-yl)-3-isopropyl-1H-indol-5-yl)piperidin-1-yl)-2-oxoethyl) methanesulfonamide]
23 | 5.9 nM | 5.3 nM | 5680 nM |  |  |  |  |  | Cc1cc(-c2[nH]c3ccc(C4CCN(C(=O)CCN5CCOCC5)CC4)cc3c2C(C)C)c(F)cn1 [Example 657, 1-(4-(2-(5-fluoro-2-methylpyridin-4-yl)-3-isopropyl-1H-indol-5-yl)piperidin-1-yl)-3-morpholinopropan-1-one]
24 | 5.2 nM | 24.7 nM | 1020 nM |  |  |  |  |  | Cc1cc(-c2[nH]c3ccc(C4CCN(CC(=O)N5CCCC5)CC4)cc3c2C(C)C)cc(C)n1 [Example 242, 2-(4-(2-(2,6-dimethylpyridin-4-yl)-3-isopropyl-1H-indol-5-yl)piperidin-1-yl)-1-(pyrrolidin-1-yl)ethan-1-one]
25 | 4.2 nM | 5.8 nM | 340 nM |  |  |  |  |  | Cc1cc(-c2[nH]c3ccc(C4CCN(C5CC(C)OC6(CC6)C5)CC4)cc3c2C(C)C)cc(C)n1 (stereo not drawn) [Example 456, 2-(2,6-dimethylpyridin-4-yl)-3-isopropyl-5-(1-(5-methyl-4-oxaspiro[2.5]octan-7-yl)piperidin-4-yl)-1H-indole]
26 | 3.3 nM | 10.4 nM | 365 nM |  |  |  |  |  | Cc1cc(-c2[nH]c3ccc(C4CCN(C(=O)CN5CCCC5)CC4)cc3c2C(C)C)cc(C)n1 [Example 352, 1-(4-(2-(2,6-dimethylpyridin-4-yl)-3-isopropyl-1H-indol-5-yl)piperidin-1-yl)-2-(pyrrolidin-1-yl)ethan-1-one]
27 | 3 nM | 7.2 nM | 416 nM |  |  |  |  |  | Cc1cc(-c2[nH]c3ccc(C4CCN(CC(=O)NCC(C)(C)O)CC4)cc3c2C(C)C)cc(C)n1 [Example 268, 2-(4-(2-(2,6-dimethylpyridin-4-yl)-3-isopropyl-1H-indol-5-yl)piperidin-1-yl)-N-(2-hydroxy-2-methylpropyl)acetamide]
28 | 2.1 nM | 3.7 nM | 401 nM |  |  |  |  |  | CCN1CCC(c2ccc3[nH]c(-c4cc(C)nc(C)c4)c(C(C)C)c3c2)CC1 [Example 322, 2-(2,6-dimethylpyridin-4-yl)-5-(1-ethylpiperidin-4-yl)-3-isopropyl-1H-indole]
29 | 1.1 nM | 4.2 nM | 245 nM |  |  |  |  |  | Cc1cc(-c2[nH]c3ccc(C4CCN(CC(=O)N[C@H]5CC[C@H](O)CC5)CC4)cc3c2C(C)C)cc(C)n1 [Example 211, 2-(4-(2-(2,6-dimethylpyridin-4-yl)-3-isopropyl-1H-indol-5-yl)piperidin-1-yl)-N-((1r,4r)-4-hydroxycyclohexyl)acetamide]
